Results: PubChem BioAssay AID1963965 (Molecular Pharmacology Branch, DTP, NCI, 2024)

System: 996289-038-R-J1-PDC spheroid viability
Experiment: Anticancer human tumor 996289-038-R-J1-PDC patient-derived colon adenocarcinoma cell line growth inhibition [PI3K]
Details: spheroids with HUVEC and MSC; for IC50: curve of first compound; for viability, T/C: stronger effect = lower value
Description: Combinatorial screen of targeted agents with the PI3K inhibitors inavolisib, alpelisib, duvelisib, and copanlisib in multi-cell type tumor spheroids
A high-throughput screen of multi-cell type tumor spheroids was designed to identify active combinations of targeted small molecules and PI3K pathway inhibitors. Complex spheroids include a stromal component modeled by human endothelial cells (HUVEC) and fibroblasts modeled by human mesenchymal stem cells (MSCs). The concentration ranges selected for each drug and investigational agent were based upon clinically achievable concentrations if the clinical Cmax of the agent was known.
Compounds. The drugs and investigational agents: inavolisib (NSC800729), alpelisib (NSC765974), duvelisib (NSC772469), copanlisib (NSC816437), ipatasertib (NSC767898), afuresertib (NSC778305), talazoparib (NSC767125), sapanisertib (NSC764658), selumetinib (NSC741078), tovorafenib (DAY101, NSC766906), vemurafenib (NSC761431), ravoxertinib (NSC781343), sotorasib (NSC818433), MRTX1133 (NSC 836407), abemaciclib (NSC 768073), palbociclib (NSC758247), venetoclax (NSC 766270), SY5609 (NSC837396), enzalutamide (NSC755605), and darolutamide (NSC825331), were obtained from the National Cancer Institute (NCI) Developmental Therapeutics Program Chemical Repository. The FDA-approved anticancer drug set is available from the NCI Developmental Therapeutics Program. […] The stock solutions were prepared in dimethyl sulfoxide (DMSO, Sigma-Aldrich, St. Louis, MO, cat. D2650) at 800-fold the tested concentration and stored at -70 degrees C prior to their use. All drugs and investigational agents were tested over a range starting from a high concentration at or near the clinical Cmax and decreasing in half-log increments. If the clinical Cmax for an agent had not been determined, the highest concentration tested was 10 microM.
Cell Culture. All cells were maintained in an incubator at 37 degrees C and 5% CO2 with 95% humidity. The PDC lines were cultured according to standard operating procedures established by the NCI PDMR (https://pdmr.cancer.gov/sops/default.htm). All PDCs were thawed and cultured in Matrigel-coated flasks prepared with a working solution of 1X Ham's F-12 nutrient mix, without supplementation (Invitrogen, Waltham, MA, cat. 11765054), 100 U/mL penicillin-streptomycin (Invitrogen, cat. 15140122), and 2.5% Matrigel (Corning Inc., Corning, NY, cat. 354248) for the first three passages. The 354836-022-R-J1-PDC, 475296-252-R-J1-PDC, and 997726-040-R-J2-PDC lines were cultured in 6A media, which includes advanced DMEM/F-12 (Thermo Fisher Scientific, cat. 12634028), 10 mM HEPES (Thermo Fisher Scientific, cat. 15630080), 1X GlutaMAX supplement (Thermo Fisher Scientific, cat. 35050061), 0.1 mg/mL primocin (InvivoGen, San Diego, CA, cat. ant-pm-2), 10% defined fetal bovine serum, heat inactivated (HyClone Laboratories Inc., Logan, UT, cat. SH30070.03HI), 50% L-WRN conditioned media (ATCC, cat. CRL-3276), 1.25 mM N-Acetyl-L-cysteine (Sigma-Aldrich, cat. A9165), 10 mM nicotinamide (Sigma-Aldrich, cat. N0636), 1X B-27 supplement (Thermo Fisher Scientific, cat. 17504044), 1X N-2 supplement (Thermo Fisher Scientific, cat. 17502048), and 10 microM Y-27632 dihydrochloride (Tocris Bioscience, Bristol, United Kingdom, cat. 1254). The 624824-186-R-J2-PDC line was cultured in 6C/Colon 1B media, which includes all 6A media components plus 50 ng/mL human EGF recombinant protein (Thermo Fisher Scientific, cat. PHG0311). […]
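Also: spheroids exposed to compounds for seven days before viability read.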
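For viability, T/C in this document: luminescence used as a proxy for viable cell amount; percent viability relative to DMSO vehicle control as 100%.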

CCCS(=O)(=O)Nc1ccc(F)c(C(=O)c2c[nH]c3ncc(-c4ccc(Cl)cc4)cc23)c1F + CC(Nc1ccc2c(c1)OCCn1cc(N3C(=O)OCC3C(F)F)nc1-2)C(N)=O
IC50 (second compound 0.00316 µM): 5.89 µM
IC50 (second compound 0.01 µM): 6.12 µM
IC50 (second compound 0.0316 µM): 5.81 µM
IC50 (second compound 0.1 µM): 5.11 µM
IC50 (second compound 0.316 µM): 4.38 µM
IC50 (second compound 1 µM): 1.67 µM
viability, T/C (second compound 0.00316 µM, first compound 0.0316 µM): 108%
viability, T/C (second compound 0.00316 µM, first compound 0.1 µM): 89.7%
viability, T/C (second compound 0.00316 µM, first compound 0.316 µM): 86.3%
viability, T/C (second compound 0.00316 µM, first compound 1 µM): 96.7%
viability, T/C (second compound 0.00316 µM, first compound 3.16 µM): 83.4%
viability, T/C (second compound 0.00316 µM, first compound 10 µM): 21.2%
viability, T/C (second compound 0.01 µM, first compound 0.0316 µM): 101%
viability, T/C (second compound 0.01 µM, first compound 0.1 µM): 95.8%
viability, T/C (second compound 0.01 µM, first compound 0.316 µM): 97.8%
viability, T/C (second compound 0.01 µM, first compound 1 µM): 101%
viability, T/C (second compound 0.01 µM, first compound 3.16 µM): 88%
viability, T/C (second compound 0.01 µM, first compound 10 µM): 21.4%
viability, T/C (second compound 0.0316 µM, first compound 0.0316 µM): 95%
viability, T/C (second compound 0.0316 µM, first compound 0.1 µM): 98.5%
viability, T/C (second compound 0.0316 µM, first compound 0.316 µM): 96.6%
viability, T/C (second compound 0.0316 µM, first compound 1 µM): 99.4%
viability, T/C (second compound 0.0316 µM, first compound 3.16 µM): 82.5%
viability, T/C (second compound 0.0316 µM, first compound 10 µM): 20.6%
viability, T/C (second compound 0.1 µM, first compound 0.0316 µM): 72.4%
viability, T/C (second compound 0.1 µM, first compound 0.1 µM): 71.8%
viability, T/C (second compound 0.1 µM, first compound 0.316 µM): 74.6%
viability, T/C (second compound 0.1 µM, first compound 1 µM): 73.4%
viability, T/C (second compound 0.1 µM, first compound 3.16 µM): 75.8%
viability, T/C (second compound 0.1 µM, first compound 10 µM): 16.9%
viability, T/C (second compound 0.316 µM, first compound 0.0316 µM): 74.8%
viability, T/C (second compound 0.316 µM, first compound 0.1 µM): 74.3%
viability, T/C (second compound 0.316 µM, first compound 0.316 µM): 76.6%
viability, T/C (second compound 0.316 µM, first compound 1 µM): 68%
viability, T/C (second compound 0.316 µM, first compound 3.16 µM): 65.1%
viability, T/C (second compound 0.316 µM, first compound 10 µM): 15.1%
viability, T/C (second compound 1 µM, first compound 0.0316 µM): 63.1%
viability, T/C (second compound 1 µM, first compound 0.1 µM): 72.3%
viability, T/C (second compound 1 µM, first compound 0.316 µM): 61.7%
viability, T/C (second compound 1 µM, first compound 1 µM): 52.1%
viability, T/C (second compound 1 µM, first compound 3.16 µM): 44.9%
viability, T/C (second compound 1 µM, first compound 10 µM): 12.1%
